# Reference: publication PMC5761851, “Application of a phenotypic drug discovery strategy to identify biological and chemical starting points for inhibition of TSLP production in lung epithelial cells” (PLoS ONE, 2018)
# Like-named read-outs stand apart in the source and are kept apart here.
# Experiments:
# M2 = molecular target: T1, M2 (Homo sapiens, UniProt P08172); assay: BioPrint panel: M2 (h) (antagonist); assay type: binding; settings: 1 micromolar, read-out: percentage of inhibition of activity
# T1 construct: purchased Eurofins Pharma Discovery Services (KinaseProfiler; Cerep BioPrint panel)
# From the text: (§1) Supplement pone.0189247.s004.xlsx, sheet "Bioprint Selectivity Panel" | column: %
# CB1 = molecular target: T2, CB1 (Homo sapiens, UniProt P21554); assay: BioPrint panel: CB1 (h) (agonist); assay type: binding; settings: 1 micromolar, read-out: percentage of inhibition of activity
# T2 construct: purchased Eurofins Pharma Discovery Services (KinaseProfiler; Cerep BioPrint panel)
# From the text: as §1
# M4 = molecular target: T3, M4 (Homo sapiens, UniProt P08173); assay: BioPrint panel: M4 (h) (antagonist); assay type: binding; settings: 1 micromolar, read-out: percentage of inhibition of activity
# T3 construct: purchased Eurofins Pharma Discovery Services (KinaseProfiler; Cerep BioPrint panel)
# From the text: as §1
# CaMK2alpha = molecular target: T4, CaMK2alpha (Homo sapiens, UniProt Q9UQM7); assay: BioPrint panel: CaMK2alpha (h); assay type: biochemical; settings: 1 micromolar, read-out: percentage of inhibition of activity
# T4 construct: purchased Eurofins Pharma Discovery Services (KinaseProfiler; Cerep BioPrint panel)
# From the text: as §1
# D3 = molecular target: T5, D3 (Homo sapiens, UniProt P35462); assay: BioPrint panel: D3 (h) (antagonist); assay type: binding; settings: 1 micromolar, read-out: percentage of inhibition of activity
# T5 construct: purchased Eurofins Pharma Discovery Services (KinaseProfiler; Cerep BioPrint panel)
# From the text: as §1
# N neuronal a4 b2 = molecular target: T6, N neuronal a4 b2 (Homo sapiens, UniProt P17787+P43681); assay: BioPrint panel: N neuronal a4 b2 (h) (agonist); assay type: binding; settings: 1 micromolar, read-out: percentage of inhibition of activity
# T6 construct: purchased Eurofins Pharma Discovery Services (KinaseProfiler; Cerep BioPrint panel)
# From the text: as §1
# [1] = test system: Ca2+ channel (L, diltiazem site); assay: BioPrint panel: Ca2+ channel (L, diltiazem site)(antagonist); assay type: binding; settings: 1 micromolar
# From the text: as §1
# BB3 = molecular target: T7, BB3 (Homo sapiens, UniProt P32247); assay: BioPrint panel: BB3 (h) (agonist); assay type: binding; settings: 1 micromolar, read-out: percentage of inhibition of activity
# T7 construct: purchased Eurofins Pharma Discovery Services (KinaseProfiler; Cerep BioPrint panel)
# From the text: as §1
# PDE2A1 = PDE2A1 (Homo sapiens, UniProt O00408); assay: BioPrint panel: PDE2A1 (h); assay type: biochemical; settings: 1 micromolar, read-out: percentage of inhibition of activity
# From the text: as §1
# delta 2 (DOP) = molecular target: T8, delta 2 (DOP) (Homo sapiens, UniProt P41143); assay: BioPrint panel: delta 2 (DOP) (h) (agonist); assay type: binding; settings: 1 micromolar, read-out: percentage of inhibition of activity
# T8 construct: purchased Eurofins Pharma Discovery Services (KinaseProfiler; Cerep BioPrint panel)
# From the text: as §1
# GABAA1 (a1, b2, g2) = molecular target: T9, GABAA1 (a1, b2, g2) (Homo sapiens, UniProt P14867+P47870); assay: BioPrint panel: GABAA1 (h) (a1, b2, g2)(agonist); assay type: binding; settings: 1 micromolar, read-out: percentage of inhibition of activity
# T9 construct: purchased Eurofins Pharma Discovery Services (KinaseProfiler; Cerep BioPrint panel)
# From the text: as §1
# PAF = molecular target: T10, PAF (Homo sapiens, UniProt P25105); assay: BioPrint panel: PAF (h) (agonist); assay type: binding; settings: 1 micromolar, read-out: percentage of inhibition of activity
# T10 construct: purchased Eurofins Pharma Discovery Services (KinaseProfiler; Cerep BioPrint panel)
# From the text: as §1
# [2] = molecular target: T11, norepinephrine transporter (Homo sapiens, UniProt P23975); assay: BioPrint panel: norepinephrine transporter (h) (antagonist); assay type: binding; settings: 1 micromolar, read-out: percentage of inhibition of activity
# T11 construct: purchased Eurofins Pharma Discovery Services (KinaseProfiler; Cerep BioPrint panel)
# From the text: as §1
# COX1 = molecular target: T12, COX1 (Homo sapiens, UniProt P23219); assay: BioPrint panel: COX1 (h); assay type: biochemical; settings: 1 micromolar, read-out: percentage of inhibition of activity
# T12 construct: purchased Eurofins Pharma Discovery Services (KinaseProfiler; Cerep BioPrint panel)
# From the text: as §1
# P-gp = molecular target: T13, P-gp (Homo sapiens, UniProt P08183); assay: BioPrint panel: P-gp (MDR1-MDCKII, calcein AM substrate); assay type: in vitro ADME; settings: 10 micromolar
# T13 construct: purchased Eurofins Pharma Discovery Services (KinaseProfiler; Cerep BioPrint panel)
# From the text: as §1
# kainate = assay: BioPrint panel: kainate (agonist); assay type: binding; settings: 1 micromolar
# From the text: as §1
# 5-HT1A = molecular target: T14, 5-HT1A (Homo sapiens, UniProt P08908); assay: BioPrint panel: 5-HT1A (h) (agonist); assay type: binding; settings: 1 micromolar, read-out: percentage of inhibition of activity
# T14 construct: purchased Eurofins Pharma Discovery Services (KinaseProfiler; Cerep BioPrint panel)
# From the text: as §1
# inducible NOS = molecular target: T15, inducible NOS (Mus musculus, UniProt P29477); assay: BioPrint panel: inducible NOS; assay type: biochemical; settings: 1 micromolar, read-out: percentage of inhibition of activity
# T15 construct: purchased Eurofins Pharma Discovery Services (KinaseProfiler; Cerep BioPrint panel)
# From the text: as §1
# BLT1 (LTB4) = molecular target: T16, BLT1 (LTB4) (Homo sapiens, UniProt Q15722); assay: BioPrint panel: BLT1 (LTB4) (h) (agonist); assay type: binding; settings: 1 micromolar, read-out: percentage of inhibition of activity
# T16 construct: purchased Eurofins Pharma Discovery Services (KinaseProfiler; Cerep BioPrint panel)
# From the text: as §1
# [3] = test system: Phosphorylation of Akt in THP1 cells; assay: PI3Kδ dependent pAkt phosphorylation in M-CSF stimulated THP-1 cells; assay type: cell-based
# Protocol: Quantification of enzymatic p38 activity and p38-dependent TNF production in THP-1 cells was performed as previously described. Enzymatic Syk kinase activity assays and Syk dependent LAD2 cells degranulation assays were performed as previously described. PI3Kδ dependent pAkt phosphorylation in macrophage colony-stimulating factor (M-CSF) stimulated THP-1 cells was measured as previously described.
# AMPA = assay: BioPrint panel: AMPA (agonist); assay type: binding; settings: 1 micromolar
# From the text: as §1
# 5-HT2C = molecular target: T17, 5-HT2C (Homo sapiens, UniProt P28335); assay: BioPrint panel: 5-HT2C (h) (agonist); assay type: binding; settings: 1 micromolar, read-out: percentage of inhibition of activity
# T17 construct: purchased Eurofins Pharma Discovery Services (KinaseProfiler; Cerep BioPrint panel)
# From the text: as §1
# MMP-1 = molecular target: T18, MMP-1 (Homo sapiens, UniProt P03956); assay: BioPrint panel: MMP-1 (h); assay type: biochemical; settings: 1 micromolar
# T18 construct: purchased Eurofins Pharma Discovery Services (KinaseProfiler; Cerep BioPrint panel)
# From the text: as §1
# 5-HT1B = molecular target: T19, 5-HT1B (Rattus norvegicus, UniProt P28564); assay: BioPrint panel: 5-HT1B (antagonist); assay type: binding; settings: 1 micromolar, read-out: percentage of inhibition of activity
# T19 construct: purchased Eurofins Pharma Discovery Services (KinaseProfiler; Cerep BioPrint panel)
# From the text: as §1
# 5-HT7 = molecular target: T20, 5-HT7 (Homo sapiens, UniProt P34969); assay: BioPrint panel: 5-HT7 (h) (agonist); assay type: binding; settings: 1 micromolar, read-out: percentage of inhibition of activity
# T20 construct: purchased Eurofins Pharma Discovery Services (KinaseProfiler; Cerep BioPrint panel)
# From the text: as §1
# sst4 = molecular target: T21, sst4 (Homo sapiens, UniProt P31391); assay: BioPrint panel: sst4 (h) (agonist); assay type: binding; settings: 1 micromolar, read-out: percentage of inhibition of activity
# T21 construct: purchased Eurofins Pharma Discovery Services (KinaseProfiler; Cerep BioPrint panel)
# From the text: as §1
# [4] = test system: human primary cell culture and co-culture systems; assay: BioMAP Diversity PLUS phenotypic profiling; assay type: cell-based
# From the text: The concept of the BioMAP® Diversity PLUS™ Platform™ (DiscoverX) has been previously described. The platform is comprised of 12 specific combinations of human primary cell culture and co-culture systems stimulated with a range of physiological and disease relevant stimuli (S2 Table). The resulting activities define a bioactivity fingerprint that was used to search for similar patterns of biological responses across the BioMAP® reference database of >3,000 compounds, biologics, approved drugs and experimental agents. Compound 4 was tested at 0.111 μM, 0.333 μM, 1 μM and 3 μM concentrations.
# MAO-A = molecular target: T22, MAO-A (Rattus norvegicus, UniProt P21396); assay: BioPrint panel: MAO-A (antagonist); assay type: binding; settings: 1 micromolar, read-out: percentage of inhibition of activity
# T22 construct: purchased Eurofins Pharma Discovery Services (KinaseProfiler; Cerep BioPrint panel)
# From the text: as §1
# 5-HT6 = molecular target: T23, 5-HT6 (Homo sapiens, UniProt P50406); assay: BioPrint panel: 5-HT6 (h) (agonist); assay type: binding; settings: 1 micromolar, read-out: percentage of inhibition of activity
# T23 construct: purchased Eurofins Pharma Discovery Services (KinaseProfiler; Cerep BioPrint panel)
# From the text: as §1
# T10 sequence (P25105 whole entry): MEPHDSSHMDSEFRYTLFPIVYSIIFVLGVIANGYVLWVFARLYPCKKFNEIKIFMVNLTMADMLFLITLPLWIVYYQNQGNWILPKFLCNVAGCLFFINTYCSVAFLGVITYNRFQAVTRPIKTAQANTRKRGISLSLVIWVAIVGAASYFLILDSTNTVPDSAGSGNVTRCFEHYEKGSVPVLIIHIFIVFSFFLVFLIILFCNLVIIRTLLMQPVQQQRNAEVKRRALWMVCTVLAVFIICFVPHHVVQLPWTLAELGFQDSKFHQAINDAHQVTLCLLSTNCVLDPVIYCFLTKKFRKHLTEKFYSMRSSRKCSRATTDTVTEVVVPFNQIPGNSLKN
# T22 sequence (P21396 whole entry): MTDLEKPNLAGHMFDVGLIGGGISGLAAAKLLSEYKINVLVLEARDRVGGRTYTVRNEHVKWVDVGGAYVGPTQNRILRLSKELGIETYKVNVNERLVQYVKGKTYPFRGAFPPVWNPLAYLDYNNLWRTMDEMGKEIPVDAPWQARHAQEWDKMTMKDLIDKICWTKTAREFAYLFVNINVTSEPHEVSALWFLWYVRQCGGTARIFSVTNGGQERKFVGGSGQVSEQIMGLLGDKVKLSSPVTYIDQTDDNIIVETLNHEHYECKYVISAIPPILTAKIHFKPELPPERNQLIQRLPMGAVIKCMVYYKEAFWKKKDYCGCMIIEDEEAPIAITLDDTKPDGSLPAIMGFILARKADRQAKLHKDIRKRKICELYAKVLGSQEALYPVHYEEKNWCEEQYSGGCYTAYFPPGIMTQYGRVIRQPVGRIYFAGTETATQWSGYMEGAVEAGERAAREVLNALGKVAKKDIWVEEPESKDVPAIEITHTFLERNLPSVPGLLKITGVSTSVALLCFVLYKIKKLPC
# T2 sequence (P21554 whole entry): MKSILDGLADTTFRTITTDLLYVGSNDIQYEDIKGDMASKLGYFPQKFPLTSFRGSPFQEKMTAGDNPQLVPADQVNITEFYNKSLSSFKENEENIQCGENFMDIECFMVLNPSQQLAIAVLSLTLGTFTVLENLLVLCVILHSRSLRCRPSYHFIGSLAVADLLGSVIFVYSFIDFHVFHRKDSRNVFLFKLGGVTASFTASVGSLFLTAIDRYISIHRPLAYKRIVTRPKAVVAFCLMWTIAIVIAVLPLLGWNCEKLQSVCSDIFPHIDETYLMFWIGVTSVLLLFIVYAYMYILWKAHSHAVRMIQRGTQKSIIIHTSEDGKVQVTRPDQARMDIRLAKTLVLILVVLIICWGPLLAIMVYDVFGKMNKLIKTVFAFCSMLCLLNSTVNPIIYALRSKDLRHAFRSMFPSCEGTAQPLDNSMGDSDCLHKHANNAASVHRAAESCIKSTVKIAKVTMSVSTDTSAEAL
# T4 sequence (Q9UQM7 whole entry): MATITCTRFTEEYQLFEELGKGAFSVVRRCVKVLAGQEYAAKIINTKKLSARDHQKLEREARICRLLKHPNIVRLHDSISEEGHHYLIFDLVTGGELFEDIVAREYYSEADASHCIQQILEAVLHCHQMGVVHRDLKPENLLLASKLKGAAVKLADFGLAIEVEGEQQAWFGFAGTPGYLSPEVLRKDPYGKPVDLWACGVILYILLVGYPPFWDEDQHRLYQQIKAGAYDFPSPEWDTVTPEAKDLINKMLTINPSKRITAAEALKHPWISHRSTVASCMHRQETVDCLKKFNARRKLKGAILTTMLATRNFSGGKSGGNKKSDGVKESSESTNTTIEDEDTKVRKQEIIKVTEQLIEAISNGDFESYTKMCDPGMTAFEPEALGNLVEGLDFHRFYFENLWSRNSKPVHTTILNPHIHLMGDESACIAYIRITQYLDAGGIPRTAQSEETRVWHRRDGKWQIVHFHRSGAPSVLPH
# T3 sequence (P08173 whole entry): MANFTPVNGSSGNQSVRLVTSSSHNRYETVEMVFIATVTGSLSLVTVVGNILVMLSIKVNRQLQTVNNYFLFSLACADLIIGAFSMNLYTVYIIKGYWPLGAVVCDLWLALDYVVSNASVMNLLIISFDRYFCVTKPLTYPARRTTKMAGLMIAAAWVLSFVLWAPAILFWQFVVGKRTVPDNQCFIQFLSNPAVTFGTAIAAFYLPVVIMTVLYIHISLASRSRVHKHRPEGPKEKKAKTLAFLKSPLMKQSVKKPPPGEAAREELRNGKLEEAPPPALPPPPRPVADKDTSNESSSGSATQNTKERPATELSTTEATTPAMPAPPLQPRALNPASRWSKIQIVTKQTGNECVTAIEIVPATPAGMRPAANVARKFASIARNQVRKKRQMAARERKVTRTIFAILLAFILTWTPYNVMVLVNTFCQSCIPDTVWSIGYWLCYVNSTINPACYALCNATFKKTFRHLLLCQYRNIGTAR
# T20 sequence (P34969 whole entry): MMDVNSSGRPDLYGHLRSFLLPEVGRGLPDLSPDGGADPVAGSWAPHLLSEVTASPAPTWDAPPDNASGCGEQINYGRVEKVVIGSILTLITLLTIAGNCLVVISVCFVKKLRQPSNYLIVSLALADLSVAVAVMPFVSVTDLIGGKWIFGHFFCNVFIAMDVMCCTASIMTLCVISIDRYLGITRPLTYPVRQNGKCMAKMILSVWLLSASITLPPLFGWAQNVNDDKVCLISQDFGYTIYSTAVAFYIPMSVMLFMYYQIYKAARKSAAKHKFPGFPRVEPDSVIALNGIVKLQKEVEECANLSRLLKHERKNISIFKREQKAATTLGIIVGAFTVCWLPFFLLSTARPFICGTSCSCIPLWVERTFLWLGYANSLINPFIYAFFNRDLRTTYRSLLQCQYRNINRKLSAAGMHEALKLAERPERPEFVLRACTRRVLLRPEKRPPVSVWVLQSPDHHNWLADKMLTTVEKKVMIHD
# T14 sequence (P08908 whole entry): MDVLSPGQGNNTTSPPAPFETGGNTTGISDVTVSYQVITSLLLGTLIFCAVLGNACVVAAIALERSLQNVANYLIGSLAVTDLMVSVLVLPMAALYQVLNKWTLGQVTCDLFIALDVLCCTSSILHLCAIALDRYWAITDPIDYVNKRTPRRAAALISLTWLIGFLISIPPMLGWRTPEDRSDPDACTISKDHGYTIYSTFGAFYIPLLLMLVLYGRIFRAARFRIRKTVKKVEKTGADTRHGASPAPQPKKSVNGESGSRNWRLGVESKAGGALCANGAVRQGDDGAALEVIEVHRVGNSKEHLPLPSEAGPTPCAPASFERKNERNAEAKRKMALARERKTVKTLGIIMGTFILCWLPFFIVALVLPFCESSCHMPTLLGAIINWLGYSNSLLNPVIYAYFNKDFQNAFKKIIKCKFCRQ
# T12 sequence (P23219 24-599): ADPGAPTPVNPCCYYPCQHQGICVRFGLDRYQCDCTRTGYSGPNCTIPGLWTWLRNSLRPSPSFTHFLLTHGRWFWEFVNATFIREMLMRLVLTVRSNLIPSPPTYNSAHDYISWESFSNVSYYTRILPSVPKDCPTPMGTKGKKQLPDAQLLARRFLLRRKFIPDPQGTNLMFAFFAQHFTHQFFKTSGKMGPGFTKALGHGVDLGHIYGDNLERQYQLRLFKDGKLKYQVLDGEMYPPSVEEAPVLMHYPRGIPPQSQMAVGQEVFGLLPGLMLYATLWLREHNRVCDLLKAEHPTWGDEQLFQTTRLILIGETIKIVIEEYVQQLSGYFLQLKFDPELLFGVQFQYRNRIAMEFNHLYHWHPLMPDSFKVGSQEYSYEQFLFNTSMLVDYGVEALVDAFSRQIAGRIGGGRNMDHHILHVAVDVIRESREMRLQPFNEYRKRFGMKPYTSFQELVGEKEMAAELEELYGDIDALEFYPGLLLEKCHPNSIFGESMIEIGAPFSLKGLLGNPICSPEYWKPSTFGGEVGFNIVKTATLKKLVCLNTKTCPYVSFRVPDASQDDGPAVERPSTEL
# T5 sequence (P35462 whole entry): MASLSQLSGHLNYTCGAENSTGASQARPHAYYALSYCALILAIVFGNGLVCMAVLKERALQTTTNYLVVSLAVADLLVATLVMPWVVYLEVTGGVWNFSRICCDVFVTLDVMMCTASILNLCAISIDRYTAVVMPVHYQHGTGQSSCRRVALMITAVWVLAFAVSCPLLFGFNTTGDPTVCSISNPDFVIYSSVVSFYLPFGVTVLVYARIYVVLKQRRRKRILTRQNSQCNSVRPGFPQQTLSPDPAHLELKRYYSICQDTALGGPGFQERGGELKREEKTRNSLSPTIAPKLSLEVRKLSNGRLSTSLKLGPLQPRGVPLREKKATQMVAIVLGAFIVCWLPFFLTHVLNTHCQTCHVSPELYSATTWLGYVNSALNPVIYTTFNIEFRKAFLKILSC
# T16 sequence (Q15722 whole entry): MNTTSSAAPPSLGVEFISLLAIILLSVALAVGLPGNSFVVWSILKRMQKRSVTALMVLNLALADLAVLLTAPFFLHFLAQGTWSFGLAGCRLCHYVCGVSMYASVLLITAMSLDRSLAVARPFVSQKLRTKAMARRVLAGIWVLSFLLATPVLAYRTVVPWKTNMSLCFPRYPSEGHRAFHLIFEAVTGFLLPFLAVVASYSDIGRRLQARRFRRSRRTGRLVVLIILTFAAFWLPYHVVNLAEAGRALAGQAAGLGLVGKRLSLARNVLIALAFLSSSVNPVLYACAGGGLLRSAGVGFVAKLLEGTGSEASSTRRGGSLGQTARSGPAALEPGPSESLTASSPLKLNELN
# T18 sequence (P03956 100-469): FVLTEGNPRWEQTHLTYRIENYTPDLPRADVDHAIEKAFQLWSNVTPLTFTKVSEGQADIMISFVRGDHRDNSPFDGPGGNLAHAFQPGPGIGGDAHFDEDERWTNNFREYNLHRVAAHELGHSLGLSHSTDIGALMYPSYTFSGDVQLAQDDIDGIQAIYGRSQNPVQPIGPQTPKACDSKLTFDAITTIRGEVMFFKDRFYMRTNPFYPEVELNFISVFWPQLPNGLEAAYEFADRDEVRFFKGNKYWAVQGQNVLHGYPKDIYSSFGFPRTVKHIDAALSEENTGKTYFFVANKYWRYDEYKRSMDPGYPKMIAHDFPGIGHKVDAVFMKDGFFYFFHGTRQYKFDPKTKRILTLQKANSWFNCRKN
smiles,measurement,setting,value
Cn1cc(-c2cccc(-c3nc(C(=O)NC4C5CC6CC4CC(O)(C6)C5)c(N)nc3N)c2)cn1 (centres unmarked) [compound 4],inhibition at 1 µM,M2,19.5%
same,inhibition at 1 µM,CB1,3.7%
same,inhibition at 1 µM,M4,0.7%
same,inhibition at 1 µM,CaMK2alpha,-53.9%
same,inhibition at 1 µM,D3,-4.2%
same,inhibition at 1 µM,N neuronal a4 b2,-13.9%
same,percentage of inhibition of activity,[1],-22.4%
same,inhibition at 1 µM,BB3,-3.6%
same,inhibition at 1 µM,PDE2A1,6.7%
same,inhibition at 1 µM,delta 2 (DOP),-0.2%
same,inhibition at 1 µM,"GABAA1 (a1, b2, g2)",-16%
same,inhibition at 1 µM,PAF,-2.1%
same,inhibition at 1 µM,[2],26.7%
same,inhibition at 1 µM,COX1,-4.3%
same,percentage of inhibition of activity,P-gp,82.8%
same,percentage of inhibition of activity,kainate,4.1%
same,inhibition at 1 µM,5-HT1A,-1.1%
same,inhibition at 1 µM,inducible NOS,-8.8%
same,inhibition at 1 µM,BLT1 (LTB4),14.2%
same,IC50,"[3]; Homo sapiens, THP-1, M-CSF stimulated, geometric mean, read-out: Activity in reference cell based assay (IC50, μM) (95% CI) Phosphorylation of Akt in THP1 cells",0.099 µM
same,IC50,"[3]; Homo sapiens, THP-1, individual values, read-out: Cellular activity (IC50, mM) Akt phosphorylation in THP1",0.085 µM
same,IC50,"[3]; individual values, read-out: Cellular activity (IC50, mM) Akt phosphorylation in THP1",0.117 µM
same,percentage of inhibition of activity,AMPA,3.7%
same,inhibition at 1 µM,5-HT2C,-17.7%
same,percentage of inhibition of activity,MMP-1,INTER
same,inhibition at 1 µM,5-HT1B,-1.1%
same,inhibition at 1 µM,5-HT7,-4.3%
same,inhibition at 1 µM,sst4,-11.8%
same,cytotoxicity in the 3C system,"[4]; 1 μM, 3C (HuVEC)",cytotoxicity
same,cytotoxicity in BioMAP activated cellular systems,[4]; 3 μM,"cytotoxic to B cells, fibroblasts and particularly endothelial cells"
same,IL-8 levels in lung fibroblasts (MyoF),[4]; 0.111 and 0.333 μM,increased
same,VCAM-1 expression in endothelial cells (3C),[4]; 0.111 and 0.333 μM,reduced
same,anti-proliferative activity in BioMAP systems,[4]; 0.111 and 0.333 μM,"anti-proliferative to endothelial cells, T and B cells, smooth muscle cells and fibroblasts"
same,sIL10 levels in the endothelial cell / macrophage system (/Mphg),[4]; 0.111 and 0.333 μM,decreased
same,"sIL17A, sIL17F and sIL6 levels in the B / PMBC cell system (BT)",[4]; 0.111 and 0.333 μM,decreased
same,endpoints inhibited out of 32 measured in the NHBE (BE3C) and NHBE / fibroblasts (B4FT) systems,"[4]; 0.111–0.333 μM, tPA and Eotaxin 3",2
same,inhibition at 1 µM,MAO-A,6.4%
same,inhibition at 1 µM,5-HT6,-5.3%
